Reference: patent publication US12215351B2, “Methods for inducing hematopoietic stem cell specificity” (THE CHILDREN'S MEDICAL CENTER CORPORATION, priority 2017, dated 2025)

Legend:
Runx1:GFP = assay: High-throughput image-based chemical screen in Runx1:GFP zebrafish embryo cultures; type: cell-based; conditions: confirmed by a dose response curve
Procedure: Stage-matched zebrafish embryos were dissociated at 24 hpf and grown in medium composed of 85% LDF medium, 5% FBS, and 10% embryo extract. LDF medium contains 50% Leibowitz's L-15 (Invitrogen), 20% DMEM (Invitrogen), and 30% DMEM/F-12 (Invitrogen), supplemented with 2% B27 (Gibco), 15 mM HEPES (Gibco), 1% L-glutamine (Gibco), 1% N2 (Gibco), 10 nM sodium selenite (Sigma), 0.018% sodium bicarbonate (Gibco), 0.04% Primocin (Invivogen), and 0.2% Penicillin-Streptomycin (Gibco). All zebrafish experiments and procedures were performed as per protocols approved by the Boston Children's Hospital IACUC.
To screen each chemical library plate in duplicate, two 384-well plates were coated with 0.1% gelatin. Runx1:GFP^10 embryos at 24 hpf were washed with E3 embryo water and dechorionated with pronase. Embryos were washed with E3 embryo water, resuspended in blastomere media, mechanically homogenized, and filtered through a 40 µm nylon mesh filter. […]
A 4× image of the nuclear and fluorescent expression from the entire well was then thresholded and percent area was computed using ImageJ/Fiji. […] From that standard curve, residuals were calculated for each treated well and divided by the standard deviation in the control wells to obtain the z-score of each chemical treatment. […]

[1] = test system: Runx1:GFP positive cells in the CHT; assay: Runx1:GFP positive cells in the CHT of live embryos (confocal imaging); type: in vivo, zebrafish; conditions: 5 μM
Procedure: Transgenic Runx1:GFP embryos from the same clutch were treated at the time points indicated (n>10 embryos per treatment group) with 5 μM Ro5-3335 diluted in E3. Live embryos were embedded in 0.8% low-melting point agarose containing 0.04 mg/mL Tricaine and imaged on a Nikon Eclipe Ti microscope with 20× Plan-Apo DIC N.A. 0.75. CHT cells were counted blindly in Z-stack image projections processed on Imaris software (Bitplane).

[2] = test system: Runx1:GFP+ cells derived from the zebrafish embryo culture; assay: Zebrafish transplantation of cultured Runx1:GFP+ cells into casper recipients, whole kidney marrow FACS; type: in vivo; conditions: cells cultured 2 days with 50 μM, analyzed approximately 3 months post-transplant
Procedure: Runx1:GFP ubi:mCherry embryos were dissociated at 24 hpf and plated with 50 μM Ro5-3335 or DMSO. After two days in culture, double-positive cells were sorted and transplanted into 48 hpf casper recipients as previously described^10. The recipients were grown to adulthood and the whole kidney marrow was dissected at approximately 3 months and analyzed in an LSRII (BD Biosciences). As negative and positive controls, the kidney marrow of two casper adults and one Runx1:GFP ubi:mCherry adult were analyzed.

[3] = test system: human iPSC-derived hemogenic endothelium cells; assay: Human EHT culture of iPSC-derived hemogenic endothelium, FACS for CD34 and CD45; type: cell-based; conditions: day 6 of EHT
Procedure: (§1) Human iPSCs were cultured and differentiated into embryoid bodies as previously described^28. At day 8 of embryoid body differentiation, HE cells were magnetically purified for EHT, and treated with DMSO or Ro5-3335. FACS analysis for CD34 and CD45 was performed at day 6 of EHT using an LSRFortessa™ (BD Biosciences). In the case of the RUNX1c-reporter cell line^21, RUNX1c activity was analyzed at day 4 of EHT using an LSR Fortessa (BD Biosciences).

RUNX1c+24 reporter = assay: RUNX1c-enhancer reporter cell line undergoing EHT; type: cell-based, human; conditions: day 4 of EHT
Procedure: as §1

[4] = test system: iPSC-derived human hemogenic endothelium cells; assay: Intrafemoral transplantation of treated human HE cells into NOD/LtSz-scidIL2Rgnull mice; type: in vivo; conditions: HE cells treated with 25 μM, 6 weeks post-transplant
Procedure: Intrafemoral transplantations were performed as described previously^28. NOD/LtSz-scidIL2Rgnull mice (Jackson Laboratory) were transplanted with approximately 100,000 HE cells at day 4 that were treated with 25 μM Ro5-3335 or DMSO. Due to the limited cell number that can be obtained during EHT, the transplants were performed over the course of several weeks.

O=C1CN=C(c2ccc[nH]2)c2cc(Cl)ccc2N1 [Ro5-3335, 7-Chloro-1,3-dihydro-5-(1H-pyrrol-2-yl)-2H-1,4-benzodiazepin-2-one]
GFP signal in the embryo cultures (Runx1:GFP): increased
number of Runx1:GFP+ cells in the CHT at 54 hpf ([1]; treated 24-30 hpf, imaged at 54 hpf): significant increase
number of Runx1:GFP+ cells in the CHT at 72 hpf ([1]; treated 24-30 hpf, same embryos at 72 hpf): A significant difference at 72 hpf was not observed
Runx1:GFP positive cells in the CHT ([1]; treated 24-48 hpf, imaged at 54 hpf): increased
Runx1:GFP positive cells in the CHT ([1]; treated 24-54 hpf, imaged at 54 hpf): increased
Runx1:GFP positive cells in the CHT ([1]; treated 24-72 hpf, imaged at 72 hpf): increased
GFP+ chimerism in kidney marrow of adult casper recipients [2]: enhanced
CD34+CD45+ cells [3]: significant increase
RUNX1c reporter activity (RUNX1c+24 reporter): dose-dependent effect
B- and T-cells (CD19, CD3) [4]: not detected
engraftment in the contralateral leg [4]: no engraftment detected
engraftment of myeloid cells (CD33) [4]: clear population expressing the myeloid marker CD33
chimerism of human CD45+ cells in the bone marrow ([4]; one mouse): 0.017%
